Calls of active or inactive are those of the source.
Legend:
Pseudomonas aeruginosa [1] = test: Synergistic bactericidal activity against Pseudomonas aeruginosa 27853 at 0.5 times MIC incubated for 24 hrs in presence of cuminaldehyde by time kill assay; assay type: functional, organism-based
Pseudomonas aeruginosa [2] = test: Bactericidal activity against Pseudomonas aeruginosa 27853 at 0.5 times MIC incubated for 24 hrs by time kill assay; assay type: functional, organism-based
Escherichia coli [3] = test: Upregulation of intracellular ATP level in Escherichia coli ATCC 25922 at 0.5 to 1 times MIC; assay type: functional, organism-based
Escherichia coli [4] = test: Antibacterial activity against Escherichia coli infected in K88-induced enteritis mouse model assessed as reduction in number of colonies in feces at 50 mg/kg, ip administered every 12 hrs for 2 days; assay type: functional, organism-based; details: time 2.0 day
Escherichia coli [5] = test: Antimicrobial activity against Escherichia coli ATCC 25922 assessed as reduction in microbial growth in presence of LPS; assay type: functional, organism-based
Escherichia coli [6] = test: Antibacterial activity against Escherichia coli infected in K88-induced enteritis mouse model assessed as reduction in diarrhea score at 50 mg/kg, ip administered every 12 hrs for 2 days; assay type: functional, organism-based; details: time 2.0 day
[7] = system: Staphylococcus epidermidis; test: Synergistic bactericidal activity Staphylococcus epidermidis ATCC 12228 at 0.5 times MIC incubated for 24 hrs in presence of cuminaldehyde by time kill assay; assay type: functional, organism-based
Escherichia coli [8] = test: Antimicrobial activity against Escherichia coli ATCC 25922 assessed as reduction in microbial growth in presence of SIF; assay type: functional, organism-based
Cell membrane [9] = test: Induction of cytoplasmic membrane depolarization in Escherichia coli ATCC 25922 by DiSC3(5) dye-based fluorescence assay; assay type: subcellular
Mus musculus [10] = species: Mus musculus; test: Anti-inflammatory activity in ETEC-induced enteritis mouse model assessed as decrease in IL-6 level in colon by ELISA analysis; assay type: functional, organism-based
Mus musculus [11] = species: Mus musculus; test: Anti-inflammatory activity in ETEC-induced enteritis mouse model assessed as structural changes in intestine by H and E staining based analysis; assay type: functional, organism-based
Escherichia coli [12] = test: Antimicrobial activity against Escherichia coli ATCC 25922 assessed as reduction in microbial growth in presence of Mg+; assay type: functional, organism-based
Escherichia coli [13] = test: Induction of ROS accumulation in Escherichia coli ATCC 25922 at 0.5 to 1 time MIC; assay type: functional, organism-based
Acinetobacter baumannii [14] = test: Synergistic bactericidal activity against Acinetobacter baumannii at 0.5 times MIC incubated for 24 hrs in presence of cuminaldehyde by time kill assay; assay type: functional, organism-based
Streptococcus agalactiae [15] = test: Bactericidal activity against Streptococcus agalactiae CICC 10465 at 0.5 times MIC incubated for 24 hrs by time kill assay; assay type: functional, organism-based
Escherichia coli [16] = test: Antibacterial activity against Escherichia coli infected in K88-induced enteritis mouse model assessed as reduction in number of colonies in colon at 50 mg/kg, ip administered every 12 hrs for 2 days; assay type: functional, organism-based; details: time 2.0 day
Mus musculus [17] = species: Mus musculus; test: Anti-inflammatory activity in ETEC-induced enteritis mouse model assessed as decrease in IL-1beta level in colon by ELISA analysis; assay type: functional, organism-based
Salmonella typhimurium [18] = test: Synergistic bactericidal activity against Salmonella typhimurium ATCC 14028 at 0.5 times MIC incubated for 24 hrs in presence of cuminaldehyde by time kill assay; assay type: functional, organism-based; details: Salmonella enterica subsp. enterica serovar Typhimurium
Enterococcus faecalis [19] = test: Bactericidal activity against Enterococcus faecalis ATCC […] at 0.5 times MIC incubated for 24 hrs by time kill assay; assay type: functional, organism-based
Staphylococcus aureus [20] = test: Bactericidal activity against Staphylococcus aureus ATCC 25923 at 0.5 times MIC incubated for 24 hrs by time kill assay; assay type: functional, organism-based
Escherichia coli [21] = test: Antimicrobial activity against Escherichia coli ATCC 25922 assessed as reduction in microbial growth in presence of Ca+; assay type: functional, organism-based
Klebsiella pneumoniae [22] = test: Synergistic bactericidal activity against Klebsiella pneumoniae at 0.5 times MIC incubated for 24 hrs in presence of cuminaldehyde by time kill assay; assay type: functional, organism-based
Cell membrane [23] = test: Induction of outer membrane permeabilization in Escherichia coli ATCC 25922 in presence of cuminaldehyde by NPN-dye based assay; assay type: subcellular
Escherichia coli [24] = test: Synergistic bactericidal activity against Escherichia coli K88 at 0.5 times MIC incubated for 24 hrs in presence of cuminaldehyde by time kill assay; assay type: functional, organism-based
Enterococcus faecalis [25] = test: Synergistic bactericidal activity Enterococcus faecalis ATCC 29212 at 0.5 times MIC incubated for 24 hrs in presence of cuminaldehyde by time kill assay; assay type: functional, organism-based
[26] = system: Staphylococcus epidermidis; test: Bactericidal activity against Staphylococcus epidermidis ATCC 12228 at 0.5 times MIC incubated for 24 hrs by time kill assay; assay type: functional, organism-based
Escherichia coli [27] = test: Induction of ROS accumulation in Escherichia coli ATCC 25922 at 0.5 to 1 time MIC in presence of cuminaldehyde; assay type: functional, organism-based
Cell membrane [28] = test: Induction of cytoplasmic membrane depolarization in Escherichia coli ATCC 25922 assessed as increase in fluorescence intensity in presence of cuminaldehyde by DiSC3(5) dye-based fluorescence assay
Staphylococcus aureus [29] = test: Synergistic bactericidal activity Staphylococcus aureus ATCC 25923 at 0.5 times MIC incubated for 24 hrs in presence of cuminaldehyde by time kill assay; assay type: functional, organism-based
Acinetobacter baumannii [30] = test: Bactericidal activity against Acinetobacter baumannii at 0.5 times MIC incubated for 24 hrs by time kill assay; assay type: functional, organism-based
Salmonella typhimurium [31] = test: Bactericidal activity against Salmonella typhimurium ATCC 14028 at 0.5 times MIC incubated for 24 hrs by time kill assay; assay type: functional, organism-based; details: Salmonella enterica subsp. enterica serovar Typhimurium
Klebsiella pneumoniae [32] = test: Bactericidal activity against Klebsiella pneumoniae at 0.5 times MIC incubated for 24 hrs by time kill assay; assay type: functional, organism-based
Escherichia coli [33] = test: Upregulation of intracellular ATP level in Escherichia coli ATCC 25922 at 0.5 to 1 times MIC in presence of cuminaldehyde; assay type: functional, organism-based
Escherichia coli [34] = test: Antimicrobial activity against Escherichia coli ATCC 25922 assessed as reduction in microbial growth in presence of Na+; assay type: functional, organism-based
Mus musculus [35] = species: Mus musculus; test: Anti-inflammatory activity in ETEC-induced enteritis mouse model assessed as decrease in TNF-alpha level in colon by ELISA analysis; assay type: functional, organism-based
Escherichia coli [36] = test: Antimicrobial activity against Escherichia coli ATCC 25922 assessed as reduction in microbial growth in presence of SGF; assay type: functional, organism-based
Escherichia coli [37] = test: Antibacterial activity against Escherichia coli infected in K88-induced enteritis mouse model assessed as reduction in number of colonies in ileum at 50 mg/kg, ip administered every 12 hrs for 2 days; assay type: functional, organism-based; details: time 2.0 day
Streptococcus agalactiae [38] = test: Synergistic bactericidal activity Streptococcus agalactiae CICC 10465 at 0.5 times MIC incubated for 24 hrs in presence of cuminaldehyde by time kill assay; assay type: functional, organism-based
Escherichia coli [39] = test: Bactericidal activity against Escherichia coli K88 at 0.5 times MIC incubated for 24 hrs by time kill assay; assay type: functional, organism-based
Cell membrane [40] = test: Induction of outer membrane permeabilization in Escherichia coli ATCC 25922 by NPN-dye based assay; assay type: subcellular
Escherichia coli [41] = test: Antimicrobial activity against Escherichia coli 078 assessed as reduction in microbial growth by CLSI based broth microdilution method; assay type: functional
Escherichia coli [42] = test: Antimicrobial activity against Escherichia coli K88 assessed as reduction in microbial growth by CLSI based broth microdilution method; assay type: functional
Staphylococcus aureus [43] = test: Antimicrobial activity against Staphylococcus aureus ATCC 29213 assessed as reduction in microbial growth by CLSI based broth microdilution method; assay type: functional
Salmonella typhimurium [44] = test: Antimicrobial activity against Salmonella typhimurium ATCC 7731 assessed as reduction in microbial growth by CLSI based broth microdilution method; assay type: functional, Salmonella enterica subsp. enterica serovar Typhimurium; details: Salmonella enterica
Escherichia coli [45] = test: Antimicrobial activity against Escherichia coli UB 1005 assessed as reduction in microbial growth by CLSI based broth microdilution method; assay type: functional
Escherichia coli [46] = test: Antimicrobial activity against Escherichia coli ATCC 25922 assessed as reduction in microbial growth by CLSI based broth microdilution method; assay type: functional
Escherichia coli [47] = test: Antimicrobial activity against Escherichia coli K99 assessed as reduction in microbial growth by CLSI based broth microdilution method; assay type: functional
Salmonella typhimurium [48] = test: Antimicrobial activity against Salmonella typhimurium ATCC 14028 assessed as reduction in microbial growth by CLSI based broth microdilution method; assay type: functional, Salmonella enterica subsp. enterica serovar Typhimurium; details: Salmonella enterica
Staphylococcus aureus [49] = test: Antimicrobial activity against Staphylococcus aureus ATCC 25923 assessed as reduction in microbial growth by CLSI based broth microdilution method; assay type: functional
Enterococcus faecalis [50] = test: Antimicrobial activity against Enterococcus faecalis ATCC 29212 assessed as reduction in microbial growth by CLSI based broth microdilution method; assay type: functional
[51] = system: Staphylococcus epidermidis; test: Antimicrobial activity against Staphylococcus epidermidis ATCC 12228 assessed as reduction in microbial growth by CLSI based broth microdilution method; assay type: functional
Pseudomonas aeruginosa [52] = test: Antimicrobial activity against Pseudomonas aeruginosa ATCC 27853 assessed as reduction in microbial growth by CLSI based broth microdilution method; assay type: functional
[53] = Antimicrobial activity against Salmonella enterica subsp. enterica serovar Pullorum ATCC 7913 assessed as reduction in microbial growth by CLSI based broth microdilution method; assay type: functional
Staphylococcus aureus [54] = test: Antimicrobial activity against Staphylococcus aureus 43300 assessed as reduction in microbial growth by CLSI based broth microdilution method; assay type: functional
Escherichia coli [55] = test: Drug resistance, ratio of MIC for Escherichia coli ATCC 25922 after 30 passages to MIC for Escherichia coli ATCC 25922 […] after initial exposure; assay type: functional

CC[C@H](C)[C@H](NC(=O)[C@@H](NC(=O)[C@@H](CCCNC(=N)N)NC(=O)[C@H](C)NC(=O)[C@H](C)NC(=O)C(N)Cc1cccc2ccccc12)[C@@H](C)CC)C(=O)N[C@@H](CC(C)C)C(=O)N[C@H](CCCNC(=N)N)C(=O)N[C@@H](Cc1c[nH]c2ccccc12)C(=O)N[C@H](CCCNC(=N)N)C(=O)N[C@@H](Cc1ccccc1)C(=O)N[C@@H](CCCNC(=N)N)C(=O)O (some centres undefined)
active: Activity (Pseudomonas aeruginosa [1]) | Activity (Pseudomonas aeruginosa [2]) | Activity (Escherichia coli [3]) | Activity (Escherichia coli [4]) | Activity (Escherichia coli [5]) | Activity (Escherichia coli [6]) | Activity [7] | Activity (Escherichia coli [8]) | Activity (Cell membrane [9]) Dose-dependent-effect | Activity (Mus musculus [10]) | Activity (Mus musculus [11]) | Activity (Escherichia coli [12]) | Activity (Escherichia coli [13]) | Activity (Acinetobacter baumannii [14]) | Activity (Streptococcus agalactiae [15]) | Activity (Escherichia coli [16]) | Activity (Mus musculus [17]) | Activity (Salmonella typhimurium [18]) | Activity (Enterococcus faecalis [19]) | Activity (Staphylococcus aureus [20]) | Activity (Escherichia coli [21]) | Activity (Klebsiella pneumoniae [22]) | Activity (Cell membrane [23]) | Activity (Escherichia coli [24]) | Activity (Enterococcus faecalis [25]) | Activity [26] | Activity (Escherichia coli [27]) | Activity (Cell membrane [28]) | Activity (Staphylococcus aureus [29]) | Activity (Acinetobacter baumannii [30]) | Activity (Salmonella typhimurium [31]) | Activity (Klebsiella pneumoniae [32]) | Activity (Escherichia coli [33]) | Activity (Escherichia coli [34]) | Activity (Mus musculus [35]) | Activity (Escherichia coli [36]) | Activity (Escherichia coli [37]) | Activity (Streptococcus agalactiae [38]) | Activity (Escherichia coli [39])
inactive: Activity (Cell membrane [40])

Cc1ccc(C(C)C)c(O)c1 [THYMOL]
256 µg/mL: MIC (Staphylococcus aureus [43]) | MIC (Escherichia coli [45]) | MIC (Escherichia coli [46]) | MIC (Escherichia coli [47]) | MIC (Salmonella typhimurium [48]) | MIC (Staphylococcus aureus [49]) | MIC (Enterococcus faecalis [50]) | MIC (Pseudomonas aeruginosa [52]) | MIC [53] | MIC (Staphylococcus aureus [54])
128 µg/mL: MIC (Escherichia coli [42]) | MIC (Salmonella typhimurium [44]) | MIC [51]
64 µg/mL: MIC (Escherichia coli [41])

O=C(O)c1cn(C2CC2)c2cc(N3CCNCC3)c(F)cc2c1=O [CIPROFLOXACIN]
2: Ratio (Escherichia coli [55])

CC(C)=CCCC(C)CC=O (centres undefined)
4100 µg/mL: MIC (Staphylococcus aureus [43]) | MIC (Staphylococcus aureus [54])
32800 µg/mL: MIC (Escherichia coli [41]) | MIC (Escherichia coli [42]) | MIC (Salmonella typhimurium [44]) | MIC (Escherichia coli [47]) | MIC (Salmonella typhimurium [48]) | MIC [53]
16400 µg/mL: MIC (Escherichia coli [45]) | MIC (Escherichia coli [46]) | MIC (Staphylococcus aureus [49]) | MIC [51] | MIC (Pseudomonas aeruginosa [52])
1020 µg/mL: MIC (Enterococcus faecalis [50])

— ChEMBL document CHEMBL6087462, “Cuminaldehyde Potentiates Antiproteolytic Peptide Efficacy via Parallel Pathways of Enhanced Inner Membrane-Damaging Activity and Inhibition of Bacterial Energy Metabolism” (J Med Chem, 2025)
